≈ marks a conversion by molar mass, not a printed value. Peptide text beside a SMILES is read from it. * marks the point of attachment. Myristoyl = CCCCCCCCCCCCCC(=O)*; Lauroyl = CCCCCCCCCCCC(=O)*; Decanoyl = CCCCCCCCCC(=O)*; Hexanoyl = CCCCCC(=O)*; Butyryl = CCCC(=O)*
Tests used:
[1] = test system: Pseudomonas aeruginosa; assay: Antibacterial activity against Pseudomonas aeruginosa DSM 50071 assessed as growth inhibition after 18 hrs; assay type: functional; conditions: DSM 50071, 18 h
[2] = test system: Bacillus subtilis; assay: Bactericidal activity against Bacillus subtilis 168 (trpC2)2 assessed as survival rate at twice MIC concentration incubated for 15 mins measured after 18 hrs; assay type: functional, subsp. subtilis str. 168 (trpC2)2
[3] = Hemolytic activity against human RBC assessed as hemoglobin leakage at 250 ug/ml; assay type: ADME, cell-based, Erythrocyte; conditions: human red blood cells, read-out: Activity
[4] = test system: Staphylococcus aureus; assay: Antibacterial activity against Staphylococcus aureus ATCC 43300 assessed as growth inhibition after 18 hrs; assay type: functional; conditions: ATCC 43300, 18 h
[5] = test system: Escherichia coli; assay: Antibacterial activity against Escherichia coli DSM 30083 assessed as growth inhibition after 18 hrs; assay type: functional; conditions: DSM 30083, 18 h
[6] = test system: Staphylococcus aureus; assay: Antibacterial activity against Staphylococcus aureus DSM 20231 assessed as growth inhibition after 18 hrs; assay type: functional; conditions: DSM 20231, 18 h
[7] = test system: Bacillus subtilis; assay: Antibacterial activity against Bacillus subtilis 168 DSM 402 assessed as growth inhibition after 18 hrs; assay type: functional; conditions: subsp. subtilis str. 168 DSM 402, 18 h
[8] = test system: Acinetobacter baumannii; assay: Antibacterial activity against Acinetobacter baumannii DSM 30007 assessed as growth inhibition after 18 hrs; assay type: functional; conditions: DSM 30007, 18 h

| SMILES | MIC [1] [µM] | Survival [2] [%] | hemolysis at 250 ug/ml [3] [%] | MIC [4] [µM] | MIC [5] [µM] | MIC [6] [µM] | MIC [7] [µM] | MIC [8] [µM] |
| --- | --- | --- | --- | --- | --- | --- | --- | --- |
| N=C(N)NCCC[C@H](NC(=O)[C@H](Cc1c[nH]c2ccccc12)NC(=O)[C@H](CCCNC(=N)N)NC(=O)[C@H](Cc1c[nH]c2ccccc12)NC(=O)[C@@H](N)CCCNC(=N)N)C(=O)N[C@@H](Cc1c[nH]c2ccccc12)C(N)=O (H-RWRWRW-NH2) | > 100 | 2.8 | < 10 | 6 (≈ 6.27 µg/mL) | 21 (≈ 21.9 µg/mL) | 11 (≈ 11.5 µg/mL) | 3 (≈ 3.13 µg/mL) | 85 (≈ 88.8 µg/mL) |
| CC(=O)NCCCC[C@H](NC(=O)[C@H](Cc1c[nH]c2ccccc12)NC(=O)[C@H](CCCNC(=N)N)NC(=O)[C@H](Cc1c[nH]c2ccccc12)NC(=O)[C@H](CCCNC(=N)N)NC(=O)[C@H](Cc1c[nH]c2ccccc12)NC(=O)[C@@H](N)CCCNC(=N)N)C(N)=O (H-RWRWRWK(Ac)-NH2) | > 100 |  | < 10 | > 100 | > 100 | > 100 | 10 (≈ 12.1 µg/mL) | > 100 |
| CCCC(=O)NCCCC[C@H](NC(=O)[C@H](Cc1c[nH]c2ccccc12)NC(=O)[C@H](CCCNC(=N)N)NC(=O)[C@H](Cc1c[nH]c2ccccc12)NC(=O)[C@H](CCCNC(=N)N)NC(=O)[C@H](Cc1c[nH]c2ccccc12)NC(=O)[C@@H](N)CCCNC(=N)N)C(N)=O (H-RWRWRWK(Butyryl)-NH2) | > 100 |  | < 10 | 38 (≈ 47.2 µg/mL) | 38 (≈ 47.2 µg/mL) | > 100 | 5 (≈ 6.21 µg/mL) | > 100 |
| CCCCCCCCCC(=O)NCCCC[C@H](NC(=O)[C@H](Cc1c[nH]c2ccccc12)NC(=O)[C@H](CCCNC(=N)N)NC(=O)[C@H](Cc1c[nH]c2ccccc12)NC(=O)[C@H](CCCNC(=N)N)NC(=O)[C@H](Cc1c[nH]c2ccccc12)NC(=O)[C@@H](N)CCCNC(=N)N)C(N)=O (H-RWRWRWK(Decanoyl)-NH2) | 9 (≈ 11.9 µg/mL) | 0.053 | 50 | 1 (≈ 1.33 µg/mL) | 2 (≈ 2.65 µg/mL) | 1 (≈ 1.33 µg/mL) | 0.6 (≈ 0.796 µg/mL) | 5 (≈ 6.63 µg/mL) |
| CCCCCC(=O)NCCCC[C@H](NC(=O)[C@H](Cc1c[nH]c2ccccc12)NC(=O)[C@H](CCCNC(=N)N)NC(=O)[C@H](Cc1c[nH]c2ccccc12)NC(=O)[C@H](CCCNC(=N)N)NC(=O)[C@H](Cc1c[nH]c2ccccc12)NC(=O)[C@@H](N)CCCNC(=N)N)C(N)=O (H-RWRWRWK(Hexanoyl)-NH2) | 74 (≈ 94 µg/mL) | 0.687 | < 10 | 9 (≈ 11.4 µg/mL) | 19 (≈ 24.1 µg/mL) | 18 (≈ 22.9 µg/mL) | 2 (≈ 2.54 µg/mL) | 19 (≈ 24.1 µg/mL) |
| CCCCCCCCCCCC(=O)NCCCC[C@H](NC(=O)[C@H](Cc1c[nH]c2ccccc12)NC(=O)[C@H](CCCNC(=N)N)NC(=O)[C@H](Cc1c[nH]c2ccccc12)NC(=O)[C@H](CCCNC(=N)N)NC(=O)[C@H](Cc1c[nH]c2ccccc12)NC(=O)[C@@H](N)CCCNC(=N)N)C(N)=O (H-RWRWRWK(Lauroyl)-NH2) | 18 (≈ 24.4 µg/mL) | 0.004 | > 50 | 1 (≈ 1.35 µg/mL) | 4 (≈ 5.42 µg/mL) | 1 (≈ 1.35 µg/mL) | 1 (≈ 1.35 µg/mL) | 9 (≈ 12.2 µg/mL) |
| CCCCCCCCCCCCCC(=O)NCCCC[C@H](NC(=O)[C@H](Cc1c[nH]c2ccccc12)NC(=O)[C@H](CCCNC(=N)N)NC(=O)[C@H](Cc1c[nH]c2ccccc12)NC(=O)[C@H](CCCNC(=N)N)NC(=O)[C@H](Cc1c[nH]c2ccccc12)NC(=O)[C@@H](N)CCCNC(=N)N)C(N)=O (H-RWRWRWK(Myristoyl)-NH2) | 70 (≈ 96.8 µg/mL) | 0 | > 50 | 2 (≈ 2.77 µg/mL) | 17 (≈ 23.5 µg/mL) | 2 (≈ 2.77 µg/mL) | 4 (≈ 5.53 µg/mL) | 9 (≈ 12.4 µg/mL) |
| N=C(N)NCCC[C@H](NC(=O)[C@H](Cc1c[nH]c2ccccc12)NC(=O)[C@H](CCCNC(=N)N)NC(=O)[C@H](Cc1c[nH]c2ccccc12)NC(=O)[C@@H](N)CCCNC(=N)N)C(=O)N[C@@H](Cc1c[nH]c2ccccc12)C(=O)N[C@@H](CCCCN)C(N)=O (H-RWRWRWK-NH2) | > 100 |  | < 10 | 18 (≈ 21.1 µg/mL) | 18 (≈ 21.1 µg/mL) | 37 (≈ 43.4 µg/mL) | 5 (≈ 5.86 µg/mL) | > 100 |

Source: ChEMBL document CHEMBL2203177, “Tuning the activity of a short arg-trp antimicrobial Peptide by lipidation of a C- or N-terminal lysine side-chain” (ACS Med Chem Lett, 2012)
